Values quoted from earlier work in patent US20210244680A1, “WEARABLE LIPOSOMAL CANNABIDIOL TRANSDERMAL PATCH” (priority 2020, published 2021).

System: rats with arthritis
Conditions: topical gel containing CBD applied to rats with arthritis for 4 days

C=C(C)[C@@H]1CCC(C)=C[C@H]1c1c(O)cc(CCCCC)cc1O [CBD, Cannabidiol]
inflammation and signs of pain: significant drop in inflammation and signs of pain | side effects: without additional side effects
